Experiments:
[1] = gives polymerization products; cited from earlier work
[2] = Stability of lipoic acid in ethanol/phosphate buffer solutions; format: physicochemical; settings: ethanol/phosphate buffer 50 mM pH 6.8, 80:20 to 90:10; room temperature, protected from light
Procedure: In case the application in the solvent form is chosen, for example ethanol, acetone or other solvents or their mixtures thereof can be used. Also other mixtures of organic solvents with buffer solutions can be used, for example mixtures of ethanol and phosphate buffers. These mixtures can be composed by ethanol/phosphate buffer 50 mM pH:6.8 in proportions ranging from 80:20 to 90:10. In these solutions, lipoic acid is stable for at least 24 hours if stored at room temperature and protected from light. Lipoic acid is dissolved in these solvents at an optimal concentration ranging from 20 to 30% w/w, depending on the type of solvent or solvent mixture used. Application of the lipoic acid solution on the core is performed by wetting and subsequent evaporation of the solvent in presence of air at a temperature lower than 40° C., preferably ranging between 36 and 38° C. This procedure yields active cores with a low content of residual solvents.

time for which lipoic acid is stable in solution [2]: at least 24 hours
Compound: O=C(O)CCCCC1CCSS1 (centres unmarked) [lipoic acid, 1,2-dithiolan-3-pentanoic acid]
stability under environmental conditions [1]: unstable under various environmental conditions

Source: patent US8722096B2, “Lipoic acid pellets” (Aptalis Pharma Limited, priority 2006, dated 2014)
